Results: US11786534B2 (TAIHO PHARMACEUTICAL CO., LTD., priority 2019, dated 2023)

Experiments:
Type in all cases: biochemical
[1] = target: T1, human EGFR (d746-750/T790M/C797S) (Homo sapiens, UniProt P00533, C797S/DEL746-750/T790M); assay: Inhibitory activity against EGFR (d746-750/T790M/C797S) kinase
T1 construct: made in house; host or cells: Sf9 insect cells, baculovirus
Experimental: 1) Measurement of inhibitory activity against EGFR (d746-750/T790M/C797S) kinase
The compounds of the above examples and comparative examples were measured for their inhibitory activity against EGFR (d746-750/T790M/C797S) kinase activity. Among the materials required for measurement of this inhibitory activity, the kinase protein (SEQ ID NO: 1) used was prepared as follows: the cytoplasmic domain of human EGFR (d746-750/T790M/C797S) fused at the ammo terminal end with a glutathione-S-transferase (GST) tag was expressed M insect cells (Sf9) by the baculovirus expression system and then purified an a glutathione sepharose column. For use as a substrate peptide, a peptide biotinylated at the N-terminal end (biotin -EEPLYWSFPAKKK) was synthesized by reference to Perkin Elmer LabChip® series reagent FL-Peptide 22.
Procedures for measurement of the inhibitory activity are as follows. First, the compounds of the present invention were each dissolved in dimethyl sulfoxide (DMSO), and their serial dilutions were then prepared with DMSO. Secondly, each compound serial dilution (final concentration of DMSO during kinase reaction: 2.5%) or DMSO (final concentration: 2.5%) was mixed with a solution containing the substrate peptide (final concentration: 250 nM), magnesium chloride (final concentration: 10 mM), manganese chloride (final concentration: 10 mM) and ATP (final concentration: 6 μM) in a kinase reaction buffer (Carna Biosciences Inc., Japan), and the EGFR (d746-750/T790M/C797S) protein was further added thereto, followed by incubation at 25° C. for 120 minutes to cause kinase reaction. To the reaction solution, EDTA was added to give a final concentration of 24 mM to thereby stop the reaction, followed by addition of a phospholylated tyrosine detection solution containing europium-labeled anti-phosphorylated tyrosine antibody PT66 (Perkin Elmer) and SureLight APC-SA (Perkin Elmer). The reaction solution was allowed to stand at room temperature for 2 hours or longer. As a background, DMSO was used instead of each compound solution in .DMSO, and EDIA was added prior to the addition of the EGFR EGFR (d746-750/T790M/C797S) protein, followed by incubation at 25° C. for 120 minutes. The same detection solution was also added to this reaction solution, which was then allowed to stand for 2 hours or longer. Finally, all the test samples were measured with a PHERAstar FS reader (BMG LABTECH) for their fluorescence intensity at two wavelengths of 620 nm and 665 nm upon irradiation with an excitation light of 337 nm wavelength, and the ratio of fluorescence intensities at these two wavelengths was obtained as data for each compound.
Moreover, as control compounds, the above Comparative Example A (Example 3 in WO2013/118817) and Comparative Example B (Example 35 in WO2013/118817) known to have EGFR inhibitory activity were used.
In accordance with the same procedures as shown in 1) in Test Example 1, the compounds of the above examples were measured for their inhibitory activity against EGFR (d746-750/T790M/C797S) kinase activity.

[2] = target: T2, human EGFR (d746-750/C797S) (Homo sapiens, UniProt P00533, C797S/DEL746-750); assay: Inhibitory activity against EGFR (d746-750/C797S) kinase
T2 construct: purchased SignalChem
T2 sequence (P00533 with tags, fused parts or gaps DEL746-750/C797S): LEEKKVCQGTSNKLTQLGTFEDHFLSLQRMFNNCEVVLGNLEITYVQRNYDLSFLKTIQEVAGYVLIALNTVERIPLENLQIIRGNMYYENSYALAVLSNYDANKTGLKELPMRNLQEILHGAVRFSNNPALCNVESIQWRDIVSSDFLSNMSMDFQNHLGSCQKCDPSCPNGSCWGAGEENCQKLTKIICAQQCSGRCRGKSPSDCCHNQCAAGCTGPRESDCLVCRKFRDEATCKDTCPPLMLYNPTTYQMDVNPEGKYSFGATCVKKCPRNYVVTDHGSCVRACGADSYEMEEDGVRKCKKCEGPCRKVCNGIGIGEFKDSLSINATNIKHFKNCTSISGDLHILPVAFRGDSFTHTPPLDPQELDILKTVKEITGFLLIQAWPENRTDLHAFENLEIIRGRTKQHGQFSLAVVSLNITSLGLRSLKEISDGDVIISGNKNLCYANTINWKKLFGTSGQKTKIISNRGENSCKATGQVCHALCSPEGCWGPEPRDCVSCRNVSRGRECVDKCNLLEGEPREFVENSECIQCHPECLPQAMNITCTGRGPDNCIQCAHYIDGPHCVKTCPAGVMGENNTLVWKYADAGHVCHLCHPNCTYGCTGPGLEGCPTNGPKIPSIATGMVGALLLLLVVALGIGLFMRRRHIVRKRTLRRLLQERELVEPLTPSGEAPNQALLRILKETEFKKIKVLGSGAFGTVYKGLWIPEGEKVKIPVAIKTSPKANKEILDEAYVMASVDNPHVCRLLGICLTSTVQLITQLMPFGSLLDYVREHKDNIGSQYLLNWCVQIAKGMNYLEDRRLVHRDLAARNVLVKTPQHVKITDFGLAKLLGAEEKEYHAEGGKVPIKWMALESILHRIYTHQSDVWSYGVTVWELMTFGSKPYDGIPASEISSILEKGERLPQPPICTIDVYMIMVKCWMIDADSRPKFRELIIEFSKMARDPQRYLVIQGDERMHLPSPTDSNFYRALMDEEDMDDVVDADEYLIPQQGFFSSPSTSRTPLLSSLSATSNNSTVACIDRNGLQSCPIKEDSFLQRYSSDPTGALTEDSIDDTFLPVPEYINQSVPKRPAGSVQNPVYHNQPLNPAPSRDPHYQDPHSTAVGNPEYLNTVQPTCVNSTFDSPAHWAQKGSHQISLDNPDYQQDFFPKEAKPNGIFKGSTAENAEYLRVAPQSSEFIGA
Experimental: 3) Measurement of inhibitory activity against EGFR (d746-750/C797S) kinase
The compounds of the present invention were measured for their inhibitory activity against EGFR (d746-750/C797S) kinase activity.
The materials, measurement procedures and data analysis method used in this test are substantially the same as those shown in the section “Measurement of inhibitory activity aiainst EGFR (d746-750/T790M/C797S) kinase.” However, among the materials, the kinase protein used was a purified recombinant human EGFR (d746-750/C797S) protein purchased from SignalChem, while the kinase reaction buffer used was 13.5 mM Tris (pH 7.5) containing 2 mM dithiothreitol and 0.009% Tween-20. In the measurement procedures, the final concentration of ATP was set to 14 μM, the final concentration of maganesium chloride was set to 20 mM, the final concentration of manganese chloride was set to 12.5 mM, the incubation time for kinase reaction was set to 60 minutes, and the final concentration of EDTA used to stop the kinase reaction was set to 40 mM. Finally, data analysis was conducted to determine to IC50 value (nM) of each compound against EGFR (d746-750/C797S).
In accordance with the same procedures as shown in 3) in Test Example 1, the compounds of the present invention were measured for their inhibitory activity against EGFR (d746-750/C797S) kinase activity.

human EGFR (L858R/C797S) = target: T3, human EGFR (L858R/C797S) (Homo sapiens, UniProt P00533, C797S/L858R); assay: Inhibitory activity against EGFR (L858R/C797S) kinase; settings: Test Example 1, Table 5; ATP 4 μM, 90 minutes
T3 construct: purchased SignalChem
T3 sequence (P00533 25-1210 C797S/L858R): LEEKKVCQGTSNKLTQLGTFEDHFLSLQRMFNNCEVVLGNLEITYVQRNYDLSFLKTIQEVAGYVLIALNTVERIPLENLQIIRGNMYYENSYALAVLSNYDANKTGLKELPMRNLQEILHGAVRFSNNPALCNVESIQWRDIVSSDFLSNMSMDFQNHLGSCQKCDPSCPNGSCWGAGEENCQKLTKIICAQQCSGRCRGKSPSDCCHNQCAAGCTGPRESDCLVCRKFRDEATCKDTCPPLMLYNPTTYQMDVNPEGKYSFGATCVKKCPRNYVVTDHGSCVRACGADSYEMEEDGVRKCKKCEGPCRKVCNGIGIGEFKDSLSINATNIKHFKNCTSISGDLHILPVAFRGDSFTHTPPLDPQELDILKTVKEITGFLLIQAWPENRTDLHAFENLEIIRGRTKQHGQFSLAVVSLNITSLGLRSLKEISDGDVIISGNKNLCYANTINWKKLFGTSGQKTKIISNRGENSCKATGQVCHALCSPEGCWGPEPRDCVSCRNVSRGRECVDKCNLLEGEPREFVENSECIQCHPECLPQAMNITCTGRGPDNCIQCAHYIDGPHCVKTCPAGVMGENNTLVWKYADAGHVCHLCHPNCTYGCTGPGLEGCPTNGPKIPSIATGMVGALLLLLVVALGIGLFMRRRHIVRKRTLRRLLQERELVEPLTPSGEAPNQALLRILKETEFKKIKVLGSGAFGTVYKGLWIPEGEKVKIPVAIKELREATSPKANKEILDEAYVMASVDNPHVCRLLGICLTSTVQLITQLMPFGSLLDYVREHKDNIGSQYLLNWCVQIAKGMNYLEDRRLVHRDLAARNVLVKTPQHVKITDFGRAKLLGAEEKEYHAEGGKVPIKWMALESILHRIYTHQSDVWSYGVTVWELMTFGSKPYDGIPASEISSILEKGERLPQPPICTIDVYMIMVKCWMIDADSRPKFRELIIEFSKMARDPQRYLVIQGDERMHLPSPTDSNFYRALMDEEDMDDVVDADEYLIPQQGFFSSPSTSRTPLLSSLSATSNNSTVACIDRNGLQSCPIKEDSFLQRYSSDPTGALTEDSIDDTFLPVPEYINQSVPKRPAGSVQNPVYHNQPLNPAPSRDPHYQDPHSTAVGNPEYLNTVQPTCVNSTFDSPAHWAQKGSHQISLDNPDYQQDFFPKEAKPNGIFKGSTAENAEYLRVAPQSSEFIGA
Experimental: 4) Measurement of inhibitory activity against EGFR (L858R/C797S) kinase
The compounds of the present invention were measured for their inhibitory activity aeainst EGFR (L858R/C797S) kinase activity.
The materials, measurement procedures and data analysis method used in this test are stibstantially the same as those shown in the section “Measurement of inhibitory activity against EGFR (d746-750/C797S) kinase.” However, among the materials, the kinase protein used was a purified recombinant human EGFR (C797S/L858R) protein purchased from SignalChem. In the measurement procedures, the final concentration of ATP was set to 4 μM, and the incubation time for kinase reaction was set to 90 minutes. Finally, data analysis was conducted determine the IC50 value (nM) of each compound against EGFR (L858R/C797S).
In accordance with the same procedures as shown in 4) in Test Example 1, the compounds of the present invention were measured for their inhibitor activity against. EGFR (L858R/C797S) kinase activity.

human EGFR (WT) = target: T4, human EGFR (WT) (Homo sapiens, UniProt P00533); assay: Inhibitory activity against EGFR (WT) kinase
T4 construct: purchased Carna Biosciences Inc., Japan
T4 sequence (P00533 25-1210): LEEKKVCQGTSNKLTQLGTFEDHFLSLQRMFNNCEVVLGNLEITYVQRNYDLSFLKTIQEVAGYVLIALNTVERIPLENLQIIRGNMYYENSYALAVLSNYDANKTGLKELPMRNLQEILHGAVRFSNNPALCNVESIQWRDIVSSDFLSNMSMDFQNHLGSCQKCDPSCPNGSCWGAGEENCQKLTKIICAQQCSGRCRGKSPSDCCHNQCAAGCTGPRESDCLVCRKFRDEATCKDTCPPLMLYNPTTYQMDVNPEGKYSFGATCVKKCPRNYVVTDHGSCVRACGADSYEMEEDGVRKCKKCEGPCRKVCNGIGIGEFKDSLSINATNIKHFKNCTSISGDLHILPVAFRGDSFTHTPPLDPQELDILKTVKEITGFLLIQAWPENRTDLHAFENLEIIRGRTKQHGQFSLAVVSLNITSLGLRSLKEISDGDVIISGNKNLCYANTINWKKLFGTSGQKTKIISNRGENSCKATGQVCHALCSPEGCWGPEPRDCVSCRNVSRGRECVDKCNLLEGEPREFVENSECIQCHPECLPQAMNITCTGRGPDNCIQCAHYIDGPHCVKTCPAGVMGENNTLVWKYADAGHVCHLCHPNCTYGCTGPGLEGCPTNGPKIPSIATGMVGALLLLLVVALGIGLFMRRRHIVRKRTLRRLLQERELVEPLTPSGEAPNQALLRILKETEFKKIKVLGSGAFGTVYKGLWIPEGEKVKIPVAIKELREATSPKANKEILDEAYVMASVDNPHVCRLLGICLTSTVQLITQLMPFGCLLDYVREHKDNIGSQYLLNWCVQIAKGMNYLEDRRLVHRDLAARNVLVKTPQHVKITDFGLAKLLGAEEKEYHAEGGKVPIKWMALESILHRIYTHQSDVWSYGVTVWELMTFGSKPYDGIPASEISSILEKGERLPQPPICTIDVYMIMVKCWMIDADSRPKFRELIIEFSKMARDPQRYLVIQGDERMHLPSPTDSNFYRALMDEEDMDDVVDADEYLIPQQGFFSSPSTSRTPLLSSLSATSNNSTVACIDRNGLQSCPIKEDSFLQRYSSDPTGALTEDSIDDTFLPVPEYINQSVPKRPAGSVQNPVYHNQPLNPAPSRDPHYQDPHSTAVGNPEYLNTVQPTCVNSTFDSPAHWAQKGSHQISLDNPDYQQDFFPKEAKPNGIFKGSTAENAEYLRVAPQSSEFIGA
Experimental: The compounds of the present invention were measured for their inhibitory activity nainst EGFR (WT) kinase activity.
The materials, measurement procedures and data analysis method used in this test. are substantially the same as those shown in the section “Measurement of inhibitory activity against EGFR (d746-750/T790M/C797S) kinase.” However, among the materials, the kinase protein used was a purified recombinant human EGFR (WT) purchased from Carna Biosciences Inc., Japan. In the measurement procedures, the final concentration of ATP was set to 1.5 μM. Finally, data analysis was conducted to determine the IC50 value (nM) of each compound against EGFR (WT).
In accordance with the same procedures as shown in 5) in Test Example 1, the compounds of the present invention were measured for their inhibitory activity against. EGFR (WT) kinase activity.

[3] = target: T5, human EGFR (L858R/T790M/C797S) (Homo sapiens, UniProt P00533, C797S/L858R/T790M); assay: Inhibitory activity against EGFR (L858R/T790M/C797S) kinase; settings: Test Example 3, Table 9; same procedures as 2) in Test Example 1
T5 construct: made in house; host or cells: Sf9 insect cells, baculovirus
T5 sequence (P00533 with tags, fused parts or gaps T790M/C797S/L858R): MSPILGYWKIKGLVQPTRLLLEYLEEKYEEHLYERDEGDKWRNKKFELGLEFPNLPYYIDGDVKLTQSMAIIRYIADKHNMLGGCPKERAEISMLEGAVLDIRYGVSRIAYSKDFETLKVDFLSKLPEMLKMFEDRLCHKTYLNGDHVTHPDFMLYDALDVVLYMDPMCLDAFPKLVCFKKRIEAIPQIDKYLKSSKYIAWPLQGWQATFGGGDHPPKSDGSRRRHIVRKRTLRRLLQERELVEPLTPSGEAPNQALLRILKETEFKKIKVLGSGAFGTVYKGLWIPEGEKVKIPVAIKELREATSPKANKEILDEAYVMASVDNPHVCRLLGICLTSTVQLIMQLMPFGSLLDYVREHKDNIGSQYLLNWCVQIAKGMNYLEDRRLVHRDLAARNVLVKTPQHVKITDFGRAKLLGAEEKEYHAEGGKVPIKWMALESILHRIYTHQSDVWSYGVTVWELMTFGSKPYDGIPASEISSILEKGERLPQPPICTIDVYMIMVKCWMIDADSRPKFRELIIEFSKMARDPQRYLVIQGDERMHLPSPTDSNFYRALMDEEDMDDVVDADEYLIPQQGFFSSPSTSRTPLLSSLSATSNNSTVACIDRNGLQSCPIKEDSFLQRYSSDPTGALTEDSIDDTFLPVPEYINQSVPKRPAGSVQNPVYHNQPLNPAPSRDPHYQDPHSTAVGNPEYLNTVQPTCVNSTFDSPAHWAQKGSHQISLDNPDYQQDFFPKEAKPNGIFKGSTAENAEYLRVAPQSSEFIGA
Experimental: 2) Measurement of inhibitory activity against EGFR (L858R/T790M/C797S) kinase
The compounds of the presein invention were measured for their inhibitory activity against EGFR (L858R/T790M/C797S) kinase activity.
The materials, measurement procedures and data analysis method used in this test are substantially the same as those shown in the section “Measurement of inhibitory activity against EGFR (d746-750/T790M/C797S) kinase.” However, among the materials, the kinase protein (SEQ ID NO: 2) used was prepared as follows: the cytoplasmic domain of human EGFR (L858R/T790M/C797S) fused at the amino terminal end with a GST tag was expressed in insect cells (Sf9) by the baculovirus expression system and then purified on a glutathione sepharose column. In the measurement procedures, the final concentration of ATP was set to 0.5 μM. Finally, data analysis was conducted to determine the IC50 value (nM) of each compound against EGFR (L858R/T790M/C797S).
In accordance with the same procedures as shown in 2) in Test Example 1, the compounds of the present invention were measured for their inhibitory activity against EGFR (L858R/T790M/C797S) kinase activity.

[4] = Test Example 1, Table 2, ATP 6 μM, 25° C., 120 minutes
[5] = Test Example 1, Table 4, ATP 14 μM, 60 minutes
[6] = Test Example 1, Table 6, ATP 1.5 μM

T1 sequence (P00533 with tags, fused parts or gaps DEL746-750/T790M/C797S): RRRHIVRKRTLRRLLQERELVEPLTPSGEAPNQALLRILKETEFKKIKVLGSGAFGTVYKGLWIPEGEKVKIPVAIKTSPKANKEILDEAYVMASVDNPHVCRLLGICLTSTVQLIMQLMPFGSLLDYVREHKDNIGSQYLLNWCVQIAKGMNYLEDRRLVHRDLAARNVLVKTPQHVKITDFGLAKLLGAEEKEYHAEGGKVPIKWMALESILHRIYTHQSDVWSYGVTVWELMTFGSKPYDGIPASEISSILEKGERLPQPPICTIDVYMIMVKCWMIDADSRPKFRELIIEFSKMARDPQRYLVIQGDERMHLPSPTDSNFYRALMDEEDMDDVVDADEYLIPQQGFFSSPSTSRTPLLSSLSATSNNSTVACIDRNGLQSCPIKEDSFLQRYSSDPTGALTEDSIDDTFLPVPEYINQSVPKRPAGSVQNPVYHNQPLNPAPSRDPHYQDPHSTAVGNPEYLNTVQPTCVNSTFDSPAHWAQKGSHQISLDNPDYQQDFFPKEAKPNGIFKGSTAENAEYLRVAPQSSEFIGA

C#Cc1c(-c2cnc3ccccc3c2)c2c(N)ncnc2n1C12CCC(NC(=O)CN(C)C)(CC1)CC2 [Example 55] showed an IC50 [1, 4] of less than 0.3 nM, an IC50 [2, 5] of 0.86 nM and an IC50 (human EGFR (L858R/C797S)) of 1.2 nM. The IC50 (human EGFR (WT); [6]) was 1.2 nM.

C#Cc1c(-c2cnc3ccccc3c2)c2c(N)ncnc2n1C12CCC(NC(=O)[C@@H]3CNCCO3)(CC1)C2 [Example 62, (S)-N-(4-(4-Amino-6-ethynyl-5-(quinolin-3-yl)-7H-pyrrolo[2,3-d]pyrimidin-7-yl) -bicyclo[2.2.1]heptan-1-yl)morpholine-2-carboxamide] gave an IC50 ([1]; Test Example 3, Table 8; same procedures as 1) in Test Example 1) of less than 0.3 nM, an IC50 [3] of less than 0.3 nM and an IC50 ([2]; Test Example 3, Table 10; same procedures as 3) in Test Example 1) of 0.34 nM. It also gave an IC50 (human EGFR (WT); Test Example 3, Table 12; same procedures as 5) in Test Example 1) of 1.6 nM.

Work on C#Cc1c(-c2cnc3ccccc3c2)c2c(N)ncnc2n1C12CCC(NC(=S)N3CC4(CN(C)C4)C3)(CC1)CC2 [Example 56] yielded an IC50 [1, 4] of less than 0.3 nM, an IC50 [2, 5] of 0.84 nM and an IC50 (human EGFR (L858R/C797S)) of 0.9 nM. For the same compound, the IC50 (human EGFR (WT); [6]) was 0.94 nM.

C#Cc1c(-c2cnc3ccccc3c2)c2c(N)ncnc2n1C12CCC(CN(C)C)(CC1)C2 [Example 40, 7-(4-((Dimethylamino)methyl)bicyclo[2.2.1]heptan-1-yl)-6-ethynyl-5-(quinolin-3-yl) -7H-pyrrolo[2,3-d]pyrimidine-4-amine] was tested, and the IC50 [1, 4] was less than 0.3 nM, the IC50 [2, 5] was 2.6 nM and the IC50 (human EGFR (L858R/C797S)) was 4 nM. It also gave an IC50 (human EGFR (WT); [6]) of 5 nM.

CC#Cc1c(-c2cnc3ccccc3c2)c2c(N)ncnc2n1C12CCC(NC(=O)c3ccnn3C)(CC1)C2 [Example 33, N-(4-(4-Amino-6-(propyn-1-yl)-5-(quinolin-3-yl)-7H-pyrrolo[2,3-d]pyrimidin-7-yl) -bicyclo[2.2.1]heptan-1-yl)-1-methyl-1H-pyrazole-5-carboxamide] showed an IC50 [1, 4] of less than 0.3 nM, an IC50 [2, 5] of 1.9 nM and an IC50 (human EGFR (L858R/C797S)) of 2.3 nM. The IC50 (human EGFR (WT); [6]) was 1.9 nM.

C#Cc1c(-c2cnc3ccccc3c2)c2c(N)ncnc2n1C12CCC(O)(CC1)CC2 [Example 7, 4-(4-Amino-6-ethynyl-5-(quinoiln-3-yl)-7H-pyrrolo[2,3-d]pyrimidin-7-yl)bicyclo-[2.2.2]octan-1-ol] showed an IC50 [1, 4] of 0.8 nM, an IC50 [2, 5] of 2.3 nM and an IC50 (human EGFR (L858R/C797S)) of 2.9 nM. For the same compound, the IC50 (human EGFR (WT); [6]) was 2.5 nM.

Work on C#Cc1c(-c2cnc3ccccc3c2)c2c(N)ncnc2n1C12CCC(N(C)C(=O)c3cnc(C)cn3)(CC1)C2 [Example 57] yielded an IC50 [1, 4] of less than 0.3 nM, an IC50 [2, 5] of 2.5 nM and an IC50 (human EGFR (L858R/C797S)) of 4.4 nM. The IC50 (human EGFR (WT); [6]) was 5.9 nM.

Work on C#Cc1c(-c2cnc3ccccc3c2)c2c(N)ncnc2n1C12CCC(NC(=O)c3cnc(N(C)C)cn3)(CC1)C2 [Example 32, N-(4-(4-Amino-6-ethynyl-5-(quinolin-3-yl)-7H-pyrrolo[2,3-d]pyrimidin-7-yl)bicyclo-[2.2.1]heptan-1-yl)-5-(dimethylamino)pyrazine-2-carboxamide] yielded an IC50 [1, 4] of less than 0.3 nM, an IC50 [2, 5] of 0.59 nM and an IC50 (human EGFR (L858R/C797S)) of 0.78 nM. It also gave an IC50 (human EGFR (WT); [6]) of 1 nM.

C#Cc1c(-c2cnc3ccccc3c2)c2c(N)ncnc2n1C12CCC(CNCCF)(CC1)C2 [Example 54, 6-Ethynyl-7-(4-(((2-fluoroethyl)amino)methyl)bicyclo[2.2.1]heptan-1-yl)-5-(quinolin-3-yl)-7H-pyrrolo[2,3-d]pyrimidine-4-amine] showed an IC50 [1, 4] of less than 0.3 nM, an IC50 [2, 5] of 1.5 nM and an IC50 (human EGFR (L858R/C797S)) of 2.8 nM. The IC50 (human EGFR (WT); [6]) was 6.3 nM.

C#Cc1c(-c2cnc3ccccc3c2)c2c(N)ncnc2n1C12CCC(N3CCN(C)C(=O)C3)(CC1)C2 [Example 5, 4-(4-(4-Amino-6-ethynyl-5-(quinolin-3-yl)-7H-pyrrolo[2,3-d]pyrimidin-7-yl)bicyclo-[2.2.1]heptan-1-yl)-1-methylpiperazin-2-one] showed an IC50 [1, 4] of 0.32 nM, an IC50 [2, 5] of 1.2 nM and an IC50 (human EGFR (L858R/C797S)) of 2.8 nM. For the same compound, the IC50 (human EGFR (WT); [6]) was 4 nM.

In the case of C#Cc1c(-c2cnc3ccccc3c2)c2c(N)ncnc2n1C12CCC(NC(=O)n3cccn3)(CC1)C2 [Example 21, N-(4-(4-Amino-6-ethynyl-5-(quinolin-3-yl)-7H-pyrrolo[2,3-d]pyrimidin-7-yl)bicyclo-[2.2.1]heptan-1-yl)-1H-pyrazole-1-carboxamide], the IC50 [1, 4] is reported as less than 0.3 nM, the IC50 [2, 5] is reported as 0.78 nM and the IC50 (human EGFR (L858R/C797S)) is reported as 0.98 nM. The IC50 (human EGFR (WT); [6]) was 1.7 nM.

For C#Cc1c(-c2cnc3ccccc3c2)c2c(N)ncnc2n1C12CCC(NCc3cccnc3)(CC1)CC2 [Example 8, 6-Ethynyl-7-(4-((pyridin-3-ylmethyl)amino)bicyclo[2.2.2]octan-1-yl)-5-(quinolin-3-yl) -7H-pyrrolo[2,3-d]pyrimidine-4-amine], the IC50 [1, 4] was less than 0.3 nM, the IC50 [2, 5] was 0.73 nM and the IC50 (human EGFR (L858R/C797S)) was 1.4 nM. For the same compound, the IC50 (human EGFR (WT); [6]) was 3.2 nM.
